Converted amounts (≈) assume the structure as drawn. Where a SMILES comes first, the peptide text is derived from it. Where no end group is shown, it is not given here. [ ]: non-standard residue; d: D form.
What was measured:
[1] = test system: human erythrocytes; assay: Hemolytic activity; assay type: cell-based; details: 37 °C, Fig. 2; for hemolytic activity under the concentration of 100 μM: 8% human erythrocytes in PBS pH 7.4, 60 min, hemoglobin release at 490 nm; for hemolytic activity compared to polybia-MPI: 8% human erythrocytes in PBS pH 7.4, peptide up to 256 µM, 60 min, 490 nm
Protocol: Fresh human blood was collected in heparinized-tube, diluted in cold PBS (pH 7.4) and centrifuged at 800g for 10 min to remove the serum and buffy coat. The erythrocytes were washed twice time and re-suspended in the same buffer to a final erythrocyte concentration of 8% for the hemolysis assay (Sharma and Sharma [2001]). The RBC (red blood cell) suspension of 100 µl was transferred into a 96 well microtiter plate. Peptides were dissolved in PBS (pH 7.4) of different concentrations from 2 to 256 µM were incubated with 8% erythrocytes suspension for 60 min at 37 °C. Subsequently, the plate was centrifuged at 1200×g for 10 min. Then, aliquots of 100 µl supernatant were retransferred to an another 96-well plates and measured to monitor the release of hemoglobin by microplate reader (Bio-Rad 680) at 490 nm, which indicated RBC membrane damage. 100 µl RBC (red blood cell) suspension with 0.2% Triton-X 100 or PBS was used as positive and negative control, respectively. Hemolysis rate was determined as below: Hemolysisrate(%)=(A-A2)/(A1-A2)×100% where A is the absorbance of indicator mixtures with different factors, A1 and A2 are the positive control, and the negative control, respectively (Kim et al. [2011]).
Fig. 2 The hemolytic activity of polybia-MPI and synthetic D-MPI and D-lys-MPI against human erythrocytes were determined. Fresh human blood was collected and centrifuged to remove the serum and buffy coat, and re-suspended to a final erythrocyte concentration of 8% erythrocytes suspension. Then, peptides of different concentrations from 2 to 256 μM were incubated with erythrocytes suspension for 60 min. Subsequently, the erythrocytes suspension was centrifuged and measured to monitor the release of hemoglobin at 490 nm

[2] = test system: Candida parapsilosis (ATCC 22019); assay: MIC, broth microdilution; assay type: cell-based; details: Sabouraud dextrose broth, 2 × 10^4 cfu/ml, peptide 1 to 256 µM, 18 h, 35 °C, visible turbidity, triplicate
Protocol: (§1) The minimal inhibitory concentration (MIC) of the peptides was measured in triplicate by the standard broth microdilution method (Peterson et al. [1980]; Wang et al. [2012]). In brief, bacteria/fungi were cultured overnight to mid-logarithmic-phase in Mueller–Hinton broth (MHB)/Sabouraud dextrose broth. The cultures were diluted to a final concentration of 2 × 10^4 cfu/ml in fresh Mueller–Hinton broth (MHB)/Sabouraud dextrose broth. Each well of 96-well propylene microtitre plates was filled with 100 µl cell suspension and 100 μl peptide solution of twofold diluted serially. And the final concentrations of peptide mixtures ranged from 1 to 256 µM. Controls were done without peptides. After 18 h of incubation at 37 °C (bacteria)/35 °C (fungi), the minimal inhibitory concentration (MIC) of the peptides was evaluated by visible turbidity in each well.

[3] = test system: Candida krusei (ATCC 6258); assay: MIC, broth microdilution; assay type: cell-based; details: Sabouraud dextrose broth, 2 × 10^4 cfu/ml, peptide 1 to 256 µM, 18 h, 35 °C, visible turbidity, triplicate
Protocol: as §1

[4] = test system: E. coli (ATCC 2592); assay: MIC, broth microdilution; assay type: cell-based; details: Mueller–Hinton broth, 2 × 10^4 cfu/ml, peptide 1 to 256 µM, 18 h, 37 °C, visible turbidity, triplicate
Protocol: as §1

[5] = test system: Candida albicans ATCC (ATCC 14053); assay: MIC, broth microdilution; assay type: cell-based; details: Candida albicans (ATCC 14053), Sabouraud dextrose broth, 2 × 10^4 cfu/ml, peptide 1 to 256 µM, 18 h, 35 °C, visible turbidity, triplicate
Protocol: as §1

[6] = test system: Candida glabrata ATCC (ATCC 2001); assay: MIC, broth microdilution; assay type: cell-based; details: Candida glabrata (ATCC 2001), Sabouraud dextrose broth, 2 × 10^4 cfu/ml, peptide 1 to 256 µM, 18 h, 35 °C, visible turbidity, triplicate
Protocol: as §1

[7] = test system: sakazakii (ATCC 29544); assay: MIC, broth microdilution; assay type: cell-based; details: Mueller–Hinton broth, 2 × 10^4 cfu/ml, peptide 1 to 256 µM, 18 h, 37 °C, visible turbidity, triplicate
Protocol: as §1

[8] = test system: Staphylococcus epidermidis (ATCC 12228); assay: MIC, broth microdilution; assay type: cell-based; details: Mueller–Hinton broth, 2 × 10^4 cfu/ml, peptide 1 to 256 µM, 18 h, 37 °C, visible turbidity, triplicate
Protocol: as §1

[9] = test system: Staphylococcus aureus (ATCC 29213); assay: MIC, broth microdilution; assay type: cell-based; details: Mueller–Hinton broth, 2 × 10^4 cfu/ml, peptide 1 to 256 µM, 18 h, 37 °C, visible turbidity, triplicate
Protocol: as §1

[10] = test system: Bacillus subtilis (ATCC 23857); assay: MIC, broth microdilution; assay type: cell-based; details: Mueller–Hinton broth, 2 × 10^4 cfu/ml, peptide 1 to 256 µM, 18 h, 37 °C, visible turbidity, triplicate
Protocol: as §1

[11] = test system: Pseudomonas aeruginosa (ATCC 27853); assay: MIC, broth microdilution; assay type: cell-based; details: Mueller–Hinton broth, 2 × 10^4 cfu/ml, peptide 1 to 256 µM, 18 h, 37 °C, visible turbidity, triplicate
Protocol: as §1

[12] = test system: Candida tropicalis (ATCC 750); assay: MIC, broth microdilution; assay type: cell-based; details: Sabouraud dextrose broth, 2 × 10^4 cfu/ml, peptide 1 to 256 µM, 18 h, 35 °C, visible turbidity, triplicate
Protocol: as §1

[13] = test system: E. coli (ML-35) (ATCC 43827); assay: MIC, broth microdilution; assay type: cell-based; details: Mueller–Hinton broth, 2 × 10^4 cfu/ml, peptide 1 to 256 µM, 18 h, 37 °C, visible turbidity, triplicate
Protocol: as §1

[14] = test system: Pseudomonas aeruginosa (ATCC27853); assay: MBC, plating after MIC incubation; assay type: cell-based; details: 50 µl aliquots from MIC wells onto agar plates, overnight 37 °C, lowest concentration reducing CFUs at least 99.9%
Protocol: as §1
(§2) The minimal bactericidal concentrations (MBCs) and minimum fungicidal concentration (MFCs) of the peptides was determined at the end of the incubation period by transferring 50 µl aliquots onto agar plates and incubated overnight at 37 °C/35 °C. The MBC/MFC was set as the lowest concentration of the number of CFUs that reduced at least 99.9%.

[15] = test system: Staphylococcus aureus (ATCC29213); assay: MBC, plating after MIC incubation; assay type: cell-based; details: 50 µl aliquots from MIC wells onto agar plates, overnight 37 °C, lowest concentration reducing CFUs at least 99.9%
Protocol: as §1, §2

[16] = test system: E. coli (ML-35) (ATCC43827); assay: MBC, plating after MIC incubation; assay type: cell-based; details: 50 µl aliquots from MIC wells onto agar plates, overnight 37 °C, lowest concentration reducing CFUs at least 99.9%
Protocol: as §1, §2

[17] = test system: Bacillus subtilis (ATCC23857); assay: MBC, plating after MIC incubation; assay type: cell-based; details: 50 µl aliquots from MIC wells onto agar plates, overnight 37 °C, lowest concentration reducing CFUs at least 99.9%
Protocol: as §1, §2

[18] = test system: E. coli (ATCC2592); assay: MBC, plating after MIC incubation; assay type: cell-based; details: 50 µl aliquots from MIC wells onto agar plates, overnight 37 °C, lowest concentration reducing CFUs at least 99.9%
Protocol: as §1, §2

[19] = test system: sakazakii (ATCC 29544); assay: MBC, plating after MIC incubation; assay type: cell-based; details: 50 µl aliquots from MIC wells onto agar plates, overnight 37 °C, lowest concentration reducing CFUs at least 99.9%
Protocol: as §1, §2

[20] = test system: Staphylococcus epidermidis (ATCC 12228); assay: MBC, plating after MIC incubation; assay type: cell-based; details: 50 µl aliquots from MIC wells onto agar plates, overnight 37 °C, lowest concentration reducing CFUs at least 99.9%
Protocol: as §1, §2

[21] = RP-HPLC analysis of stability to proteases in human serum; assay type: in vitro ADME; details: method details not given
From the text: In the present study, HPLC was used to determine the stability of polybia-MPI, D-lys-MPI and D-MPI to trypsin, chymotrypsin and proteases in human serum.

Molecule | hemolytic activity under the concentration of 100 μM [1] | MIC [2] [µM] | MIC [3] [µM] | MIC [4] [µM] | MIC [5] [µM] | MIC [6] [µM] | MIC [7] [µM] | MIC [8] [µM] | MIC [9] [µM] | MIC [10] [µM] | MIC [11] [µM] | MIC [12] [µM] | MIC [13] [µM] | MBC/MFC [14] [µM] | MBC/MFC [15] [µM] | MBC/MFC [16] [µM] | MBC/MFC [17] [µM] | MBC/MFC [18] [µM] | MBC/MFC [19] [µM] | MBC/MFC [20] [µM] | further results
CC[C@H](C)[C@H](N)C(=O)N[C@@H](CC(=O)O)C(=O)N[C@@H](Cc1c[nH]c2ccccc12)C(=O)N[C@H](CCCCN)C(=O)N[C@H](CCCCN)C(=O)N[C@@H](CC(C)C)C(=O)N[C@@H](CC(C)C)C(=O)N[C@@H](CC(=O)O)C(=O)N[C@@H](C)C(=O)N[C@@H](C)C(=O)N[C@H](CCCCN)C(=O)N[C@@H](CCC(N)=O)C(=O)N[C@H](C(=O)N[C@@H](CC(C)C)C(N)=O)[C@@H](C)CC [D-lys-MPI] (H-IDW[dK][dK]LLDAA[dK]QIL-NH2) | no significant hemolytic activity | >256 | 128 (≈ 212 µg/mL) | >256 | 256 (≈ 423 µg/mL) | 128 (≈ 212 µg/mL) | >256 | 256 (≈ 423 µg/mL) | >256 | >256 | >256 | 64 (≈ 106 µg/mL) | >256 | >256 | >256 | >256 | >256 | >256 | >256 | >256 | hemolytic activity compared to polybia-MPI [1]: abrogated; susceptibility to proteases in human serum by HPLC profile [21]: not or only partly degraded
CC[C@@H](C)[C@@H](N)C(=O)N[C@H](CC(=O)O)C(=O)N[C@H](Cc1c[nH]c2ccccc12)C(=O)N[C@H](CCCCN)C(=O)N[C@H](CCCCN)C(=O)N[C@H](CC(C)C)C(=O)N[C@H](CC(C)C)C(=O)N[C@H](CC(=O)O)C(=O)N[C@H](C)C(=O)N[C@H](C)C(=O)N[C@H](CCCCN)C(=O)N[C@H](CCC(N)=O)C(=O)N[C@@H](C(=O)N[C@H](CC(C)C)C(N)=O)[C@H](C)CC [D-MPI] (H-[dI][dD][dW][dK][dK][dL][dL][dD][dA][dA][dK][dQ][dI][dL]-NH2) | no significant hemolytic activity | 32 (≈ 52.9 µg/mL) | 8 (≈ 13.2 µg/mL) | 16 (≈ 26.5 µg/mL) | 16 (≈ 26.5 µg/mL) | 16 (≈ 26.5 µg/mL) | 32 (≈ 52.9 µg/mL) | 16 (≈ 26.5 µg/mL) | 16 (≈ 26.5 µg/mL) | 8 (≈ 13.2 µg/mL) | 64 (≈ 106 µg/mL) | 16 (≈ 26.5 µg/mL) | 32 (≈ 52.9 µg/mL) | 128 (≈ 212 µg/mL) | 64 (≈ 106 µg/mL) | 64 (≈ 106 µg/mL) | 8 (≈ 13.2 µg/mL) | 16 (≈ 26.5 µg/mL) | 64 (≈ 106 µg/mL) | 128 (≈ 212 µg/mL) | hemolytic activity compared to polybia-MPI [1]: decreased; susceptibility to proteases in human serum by HPLC profile [21]: not or only partly degraded
IDWKKLLDAAKQIL-NH2 [Polybia-MPI] | no significant hemolytic activity | 64 | 8 | 32 | 16 | 8 | 64 | 32 | 32 | 8 | 128 | 8 | 32 | >256 | 128 | 256 | 8 | 32 | 64 | 32 | susceptibility to proteases in human serum by HPLC profile [21]: susceptible

From publication PMC5128008, “Antimicrobial activity and stability of the D-amino acid substituted derivatives of antimicrobial peptide polybia-MPI” (AMB Express, 2016)
